Patent US20230111504A1, “COR[…] AND AVERMECTINS” (Huvepharma EOOD, priority 2020, published 2023)
Read-outs that look alike come from different tables or passages of the source.

What was measured:
SARS-CoV-2 = assay: COVID-19 clinical trial: viral clearance in upper respiratory tract swab samples (RT-PCR); format: in vivo, human
Experimental: (§1) Inclusion Criteria • 1. Male or female patients at least 18 years and up to 75 years old • 2. Signed informed consent • 3. Admitted to hospital for treatment of COVID-19. • 4. Patient within 7 days from symptom onset and within 72 hours after laboratory diagnosis (SARS-CoV-2 RT-PCR) • 5. Mild to Moderate COVID-19 disease defined as clinical status category up to 3 on the WHO 9-point ordinal scale, and/or NEWS2 score of 0 to 4 inclusive. • Hospitalized, no oxygen treatment • 6. Presence of at least 1 symptom characteristic for COVID-19 disease, e.g. fever, cough, sore throat, myalgia, fatigue, GI disorders, skin lesions, anosmia, ageusia, headache, etc • 7. In women of childbearing potential, negative pregnancy test and commitment to use contraceptive method throughout the study.
(§2) Patients are screened for 24-36 hours. […] It is encouraged to screen potential participants immediately at the day of hospitalization (including informed consent, assessment of inclusion/exclusion criteria, screening laboratory tests all done by the local central lab, assessment of clinical symptoms criteria) and randomize patients on the same day (thus, Screening period and Day 1 will coincide). To assess eligibility criteria, central local laboratory values obtained within 24-36 hours of randomization will be used, except for pre-study testing of positive status of COVID-19 infection where a 72-hours window.
Primary endpoint based on which the primary study objective will be assessed is proportion of patients who have shown negative SARS-CoV-2 PCR test on Day 7.
(§3) Day 1 is defined as the day of the first IMP/placebo administration.
Viral Clearance in Upper Respiratory Tract Swab Samples (Qualitative)—Remission
Upper respiratory tract swab samples will be collected on Days 3, 4, 5, 6, 7, 9, 12 and 14 or until two negative results are obtained. Between Day 15 and Day 28 RT-PCR shall be done upon the discretion of the Investigator until 2 consecutive negative tests.
No further RT-PCR tests will be done after 2 consecutive negative tests are obtained at any time point of the study. Swab samples should be obtained from the nasopharynx and oropharynx with two different swabs and combined in one tube, containing universal transport media. Samples are collected preferably in the mornings of each study day. Full instructions for collection, preparation, labelling, storage and shipment of samples are provided in the Laboratory Manual.

[1] = people treated with ivermectin; cited from earlier work
COVID-19 [2] = assay: COVID-19 clinical trial: time to hospital discharge; format: in vivo, human; conditions: p=0.2755
Experimental: as §1
as §2, with “window. […]” for “window.”

[3] = various species; cited from earlier work
[4] = cited from earlier work; for mean peak plasma concentration of the major component (H2B1a): single 12-mg dose (mean 165 mcg/kg)
[5] = fourteen-week study, rats; cited from earlier work
[6] = rabbits; cited from earlier work
[7] = rats; cited from earlier work
[8] = repeated dose, 2 weeks, rhesus monkeys; cited from earlier work
[9] = variety of species; cited from earlier work
C reactive protein = assay: COVID-19 clinical trial: predictive marker C reactive protein; format: in vivo, human; conditions: Day 14
[10] = fourteen-week study, dogs; cited from earlier work
D-dimer = assay: COVID-19 clinical trial: predictive marker D-dimer; format: in vivo, human
[11] = dogs; cited from earlier work
[12] = mice; cited from earlier work
[13] = rhesus monkeys, cited from earlier work
[14] = test system: human fibroblast cell culture; conditions: cited from earlier work
mouse lymphoma = conditions: cited from earlier work
COVID-19 [15] = assay: COVID-19 clinical trial: clinical improvement on WHO 9-category ordinal scale; format: in vivo, human
Experimental: as §1, §2
The secondary endpoints, related to the secondary study objectives are the following: • a. Number of patients achieving clinical improvement on Day 7 • b. Number of patients achieving clinical improvement on Day 14 • c. Number of patients achieving clinical recovery on Day 7 • d. Number of patients achieving clinical recovery on Day 14
as §3
The clinical disease severity during the study will be assessed based on the WHO Ordinal Scale for Clinical Status (Table 2). The WHO scale is a 9-category ordinal scale and was developed to have a standardized measure of the COVID-19 disease severity. The scale comprises patient status (outpatient or hospitalized), virus status (infected yes or no), limitation of activities, oxygen support, and organ support.
The same picture was observed on Day 5, with difference 18% (p=0.03 . . . ), regarding the endpoint Clinical improvement. This endpoint was measured using WHO 9-category ordinal scale, developed to have a standardized measure of the COVID-19 disease severity. Clinical improvement is defined as a decrease on WHO ordinal scale score by at least one point. For our statistical calculations from data obtained from the clinical trials we used the method described above i.e. O'Brien-Fleming method for normally distributed data.

[16] = acute oral, mice; cited from earlier work
[17] = acute oral, rats; relative to 200 μg/kg in mice; cited from earlier work

**Q.** For ivermectin, which “effect on viral clearance” value (SARS-CoV-2; Day 4, immediately after treatment, 2 consecutive negative PCR tests) is on record?
**A.** The value was “beneficial effect on the viral clearance”.

**Q.** And the “patients with negative PCR test results (2 consecutive negative tests)” value (SARS-CoV-2; Day 4, 400 μg/kg/day peroral Days 1-3 plus SoC, placebo arm 42%)?
**A.** Its value is 52%.

**Q.** And the “Day of second negative PCR test, Mean” value (SARS-CoV-2; N=50, 400 μg/kg/day peroral Days 1-3 plus SoC)?
**A.** The value was 5.52.

**Q.** And the “day by which the effect appears” value (SARS-CoV-2; PCR test endpoint)?
**A.** The value was less than 7 days.

**Q.** And the “Day of second negative PCR test, Difference Reference minus Test” value (SARS-CoV-2; p-value 0.3407, statistically insignificant)?
**A.** Its value is 0.54 days.

**Q.** What about the common side effects [1] of the same substance?
**A.** The common side effects was “headache, dizziness, drowsiness, muscle pain, abdominal pain, nausea, vomiting or diarrhea, pruritus, fatigue, hypotension”.

**Q.** What about the “Time to hospital discharge, difference between arms” value (COVID-19 [2]) of the same substance?
**A.** The value was “no statistically significant difference”.

**Q.** And the breeding performance [3]?
**A.** Its breeding performance is “has not been adversely affected”.

**Q.** And the “mean peak plasma concentration of the major component (H2B1a)” value ([4]; first of two studies, fasting healthy volunteers, range 16.4-101.1)?
**A.** The value was 46.6 (±21.9) ng/mL.

**Q.** And the “period of excretion in the feces” value ([4]; ivermectin and/or metabolites, excreted almost exclusively in the feces)?
**A.** The value was roughly 12 days.

**Q.** What about the plasma half-life ([4]; man, oral administration) of the same substance?
**A.** Its plasma half-life is “approximately 18 hours”.

**Q.** What about the “plasma concentration versus dose” value ([4]; oral administration) of the same substance?
**A.** The value was “approximately proportional to the dose”.

**Q.** And the “administered dose excreted in the urine” value ([4]; oral)?
**A.** The value was “less than 1%”.

**Q.** What about the “mean peak plasma concentration of the major component (H2B1a)” value ([4]; second of two studies, fasting healthy volunteers, range 13.9-68.4) of the same substance?
**A.** The value was 30.6 (±15.6) ng/mL.

**Q.** What about the “time of peak plasma concentration after dosing” value ([4]; single 12-mg dose, fasting healthy volunteers) of the same substance?
**A.** Its value is “approximately 4 hours”.

**Q.** And the “dose with no adverse effects” value [5]?
**A.** The value was 400 µg/kg/day.

**Q.** And the “dose causing cleft palates and clubbed feet” value [6]?
**A.** Its value is 3 mg/kg/day.

**Q.** What about the “oral dose causing cleft palates” value [7] of the same substance?
**A.** Its value is 10 mg/kg/day.

**Q.** What about the “dose with no adverse effects” value [8] of the same substance?
**A.** Its value is “up to 1,200 μg/kg/day”.

**Q.** What about the “tolerability of a 200 μg/kg dose” value [9] of the same substance?
**A.** Its value is “generally well tolerated”.

**Q.** And the CRP mean value (C reactive protein)?
**A.** Its CRP mean value is 13.76 mg/L.

**Q.** What about the CRP median value (C reactive protein) of the same substance?
**A.** The CRP median value was 3.70 mg/L.

**Q.** And the “dose with no adverse effects” value [10]?
**A.** Its value is 500 µg/kg/day.

**Q.** What about the D-dimer mean value (D-dimer; Day 3) of the same substance?
**A.** The D-dimer mean value was 395.8 ng/mL.

**Q.** What about the D-dimer mean value (D-dimer; Day 14) of the same substance?
**A.** Its D-dimer mean value is 561.69 ng/mL.

**Q.** And the “single oral dose with no significant lethality” value [11]?
**A.** Its value is “up to 10 mg/kg”.

**Q.** What about the “oral dose causing cleft palates” value [12] of the same substance?
**A.** Its value is 0.4 mg/kg/day.

**Q.** What about the minimum toxic dose ([13]; acute oral) of the same substance?
**A.** Its minimum toxic dose is 2,000 μg/kg.

**Q.** And the “toxic effects (emesis, mydriasis, sedation) at high doses” value ([13]; doses up to 24 mg/kg (120-fold the clinical dose))?
**A.** The value was “only slight increases in the observed toxic effects”.

**Q.** And the “unscheduled DNA synthesis” value [14]?
**A.** Its value is “did not induce”.

**Q.** And the “mouse lymphoma mutation assay result” value (mouse lymphoma)?
**A.** The value was “negative”.

**Q.** And the “Clinical improvement versus placebo arm” value (COVID-19 [15]; Day 4, p=0.02..., decrease on WHO ordinal scale by at least one point)?
**A.** The value was “statistically significant difference”.

**Q.** And the “Clinical improvement, difference versus placebo arm” value (COVID-19 [15]; Day 5, p=0.03...)?
**A.** The value was 18%.

**Q.** And the “Clinical improvement by visit day” value (COVID-19 [15]; FIG. 3, later difference statistically insignificant)?
**A.** The value was “better results at days 4 and 5”.

**Q.** What about the “overall clinical benefit versus Placebo treatment arm” value (COVID-19 [15]; early days of infection (day 4 and day 5 after initial dose)) of the same substance?
**A.** The value was “definitely shows clinical benefit”.

**Q.** What about the “dose producing tremors and ataxia” value [16] of the same substance?
**A.** The value was 0.2 mg/kg.

**Q.** What about the “dose producing tremors and ataxia” value [17] of the same substance?
**A.** Its value is “slightly higher doses”.
